For 18 compounds, IC50 results are on record in patent publication US8901118B2, “Compounds and methods for kinase modulation, and indications therefor” (Plexxikon Inc., priority 2010, dated 2014).

In one test the test system is SKNSH cells. Put plainly: SKNSH (human neuroblastoma) cell proliferation assay (ATPlite). Format: cell-based. Conditions: SK-N-SH, read-out: Inhibition of Cell Proliferation IC50, SKNSH. As to the method:
Compounds are assessed in a variety of cell based assays. For example BaF3 cells engineered with any of BCR-FMS, BCR-KIT, BCR-FLT3, BCR-NTRK1, BCR-NTRK2, and BCR-NTRK3, are used in cell proliferation assays to assess inhibitory activity of Fms, Kit, Flt-3, TrkA, TrkB, and TrkC, respectively. An MV-4-11 (leukemia) cell proliferation assay is used to assess inhibitory activity in Flt-3, and SKNSH (human neuroblastoma) cell proliferation assay is used to assess efficacy of Fms/Trk inhibitors. Additional cells may be assayed similarly to assess the efficacy of Fms/Trk inhibitors, such as MiaPaCa (human pancreatic cancer) and Capan-1 (human pancreatic carcinoma) cells. Reagent and assay conditions are as follows: • BaF3 cells: • Maintained in RPMI containing 10% FBS, 1% PenStrep, 1% NEAA, and 1% L-Glutamine, supplemented with 1 mg/mL G418 and 5% WEHI-CM (or recombinant murine IL-3). • Confluent cells are split 1:50 to 1:100 every 3-4 days. • MV-4-11 cells: • Maintained in Iscove's Modified Dulbecco's Medium containing 10% FBS. • Confluent cells are split 1:4 every 3-4 days. • SKNSH cells: RPMI containing 10% FBS. On day 1, cells are counted, then centrifuged in a conical tube for 5 minutes at 1000 rpm. The supernatant is removed and cells are re-suspended as follows: • BaF3: resuspend in growth media +1 mg/mL G418 (without WEHFIL-3) to 2×10^5 cells/mL. • MV-4-11: resuspend in growth media to 5×10^5 cells/mL. • SKNSH: resuspend in growth media to 2×10^4 cells/mL. The cells are plated (50 μL, 150 μL for SKNSH cells) in each well of a 96-well dish (Corning 3610) and incubated at 37° C. in 5% CO2 overnight, cells plated to a final concentration of cells as follows: • BaF3: 10,000 cells per well. • MV-4-11: 25,000 cells per well. • SKNSH: 3,000 cells per well. On day 2, compound at a maximum concentration of 5 mM is serially diluted 1:3 for a total of 8 point titration with DMSO as a control. A 1 μL aliquot of each dilution point is added to 249 μL growth media and 50 μL is added to a well containing cells, providing 10 μM compound for the maximum concentration point. The cells are incubated for 3 days at 37° C. in 5% CO2. For SKNSH cells, a 0.75 μL aliquot of appropriate dilution in DMSO is added to 150 μL of cells. On day 5, ATPlite 1 step Luminescence Assay System (Perkin Elmer #6016739) is brought to room temperature along with the cell cultures. ATPlite is added to each well as follows: • BaF3: 25 μL per well. • MV-4-11: 40 μL per well. • SKNSH: 20 μL per well. The cells are incubated at room temperature for 10 minutes, then luminescence is read on Safire reader. The measured luminescence correlates directly with cell number, such that the reading as a function of compound concentration is used to determine the IC50 value.
It is understood that the results of these assays may vary as assay conditions are varied. Inhibition levels determined under the conditions described herein represent a relative activity for the compounds tested under the specific conditions employed. The cell based assays are likely to show variability due to the complexity of the system and the sensitivity thereof to any changes in the assay conditions. […] Results for compounds that are tested and show substantially no inhibition below the highest tested concentration are represented as “-” in the tables below. In some instances, the compounds were not tested in all of the assays, or assay results were not valid, as indicated by NA in the tables below.
On the technique in general: Cellular ATP, detected with luciferase, serves as a proxy for viable cell number.

The next test addresses T1, CYP1A2 (Homo sapiens, UniProt P05177).
T1 sequence (P05177 1-516): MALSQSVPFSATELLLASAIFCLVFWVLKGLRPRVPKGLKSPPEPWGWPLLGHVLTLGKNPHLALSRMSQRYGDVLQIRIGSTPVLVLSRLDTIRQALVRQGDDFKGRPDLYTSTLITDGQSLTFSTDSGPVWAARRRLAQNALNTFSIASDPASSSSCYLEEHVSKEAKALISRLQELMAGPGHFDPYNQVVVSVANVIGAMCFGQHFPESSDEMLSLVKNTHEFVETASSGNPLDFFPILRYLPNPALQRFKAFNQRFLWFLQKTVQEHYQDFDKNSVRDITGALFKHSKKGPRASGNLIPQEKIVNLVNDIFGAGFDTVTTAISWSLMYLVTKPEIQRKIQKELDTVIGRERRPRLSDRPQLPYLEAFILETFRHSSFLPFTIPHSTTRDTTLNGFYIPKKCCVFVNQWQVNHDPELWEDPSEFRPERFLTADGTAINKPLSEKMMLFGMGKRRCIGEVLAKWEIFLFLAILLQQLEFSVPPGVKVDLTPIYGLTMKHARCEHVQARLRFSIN
Put plainly: CYP1A2 inhibition (fluorescent substrate CEC). It is filed as in vitro ADME. Conditions: read-out: Cyp IC50 1A2. The essentials: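 10-pt 1:1 dilution series (from 100 mM DMSO stock) in NADPH regen cofactor mix, 5% MeCN; 10 min preincubation at 37 °C. Enzyme reaction 37 °C: 1A2 15 min, 2C9 45 min, 2C19/2D6 30 min. Fluorescence readout; IC50 fit.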

Structures are written as SMILES.

Consider `CCc1ccc(Nc2ccc(C(=O)c3c[nH]c4ncnc(NC5CCC5)c34)c(F)n2)cn1` [Compound P-4095, [4-(cyclobutylamino)-7H-pyrrolo[2,3-d]pyrimidin-5-yl]-[6-[(6-ethyl-3-pyridyl)amino]-2-fluoro-3-pyridyl]methanone], for which the IC50 with SKNSH cells was less than 1 µM; on CYP1A2, more than 10 µM.

For the compound `CCc1ccc(Nc2ccc(C(=O)c3c[nH]c4ncnc(NC5CCC(F)(F)CC5)c34)c(F)n2)cn1` [Compound P-4096, [4-[(4,4-difluorocyclohexyl)amino]-7H-pyrrolo[2,3-d]pyrimidin-5-yl]-[6-[(6-ethyl-3-pyridyl)amino]-2-fluoro-3-pyridyl]methanone], the figures for the IC50 in the test with SKNSH cells and on CYP1A2 were less than 10 µM and less than 5 µM, respectively.

Regarding `CCc1ccc(Nc2ccc(C(=O)c3c[nH]c4ncnc(N[C@@H](C)c5ccc(F)cc5)c34)c(F)n2)cn1` [Compound P-4097, [6-[(6-ethyl-3-pyridyl)amino]-2-fluoro-3-pyridyl]-[4-[[(1S)-1-(4-fluorophenyl)ethyl]amino]-7H-pyrrolo[2,3-d]pyrimidin-5-yl]methanone], the IC50 is less than 10 µM in the test with SKNSH cells and less than 5 µM on CYP1A2.

With `CCc1ccc(Nc2ccc(C(=O)c3c[nH]c4ncnc(NCCCOC)c34)c(F)n2)cn1` [Compound P-4098, [6-[(6-ethyl-3-pyridyl)amino]-2-fluoro-3-pyridyl]-[4-(3-methoxypropylamino)-7H-pyrrolo[2,3-d]pyrimidin-5-yl]methanone], the IC50 in the test with SKNSH cells is less than 10 µM; at CYP1A2, less than 5 µM.

For the compound `CCc1ccc(Nc2ccc(C(=O)c3c[nH]c4ncnc(NC5CCCC5)c34)c(F)n2)cn1` [Compound P-4099, [4-(cyclopentylamino)-7H-pyrrolo[2,3-d]pyrimidin-5-yl]-[6-[(6-ethyl-3-pyridyl)amino]-2-fluoro-3-pyridyl]methanone], the IC50 in the test on SKNSH cells is less than 1 µM; on CYP1A2, less than 5 µM.

Regarding `CCCCNc1ncnc2[nH]cc(C(=O)c3ccc(Nc4ccc(CC)nc4)nc3F)c12` [Compound P-4100, [4-(butylamino)-7H-pyrrolo[2,3-d]pyrimidin-5-yl]-[6-[(6-ethyl-3-pyridyl)amino]-2-fluoro-3-pyridyl]methanone], the IC50 is less than 1 µM in the test with SKNSH cells and less than 5 µM on CYP1A2.

Consider `CC(C)Nc1ncnc2[nH]cc(C(=O)c3ccc(NC4CCCCC4)nc3F)c12` [Compound P-4101, [6-(cyclohexylamino)-2-fluoro-3-pyridyl]-[4-(isopropylamino)-7H-pyrrolo[2,3-d]pyrimidin-5-yl]methanone], for which the IC50 in the test on SKNSH cells is less than 1 µM; at CYP1A2, more than 10 µM.

Turning to `CNc1ncnc2[nH]cc(C(=O)c3ccc(NC4CCCCC4)nc3F)c12` [Compound P-4102, [6-(cyclohexylamino)-2-fluoro-3-pyridyl]-[4-(methylamino)-7H-pyrrolo[2,3-d]pyrimidin-5-yl]methanone], the IC50 in the test on SKNSH cells was less than 1 µM; on CYP1A2 it was less than 5 µM.

Regarding `COc1cncc(Nc2ccc(C(=O)c3c[nH]c4ncnc(NCC(F)(F)F)c34)c(F)n2)c1` [Compound P-4103, [2-fluoro-6-[(5-methoxy-3-pyridyl)amino]-3-pyridyl]-[4-(2,2,2-trifluoroethylamino)-7H-pyrrolo[2,3-d]pyrimidin-5-yl]methanone], the IC50 in the test on SKNSH cells is more than 1 µM; at CYP1A2, less than 5 µM.

Regarding `COc1cncc(Nc2ccc(C(=O)c3c[nH]c4ncnc(NC5CCCCC5)c34)c(F)n2)c1` [Compound P-4104, [4-(cyclohexylamino)-7H-pyrrolo[2,3-d]pyrimidin-5-yl]-[2-fluoro-6-[(5-methoxy-3-pyridyl)amino]-3-pyridyl]methanone], the results for the IC50 in the test with SKNSH cells and at CYP1A2 were less than 1 µM and more than 10 µM, respectively.

On to `CCCNc1ncnc2[nH]cc(C(=O)c3ccc(Nc4cncc(OC)c4)nc3F)c12` [Compound P-4105, [2-fluoro-6-[(5-methoxy-3-pyridyl)amino]-3-pyridyl]-[4-(propylamino)-7H-pyrrolo[2,3-d]pyrimidin-5-yl]methanone], for which the IC50 was less than 10 µM in the test on SKNSH cells and more than 10 µM at CYP1A2.

In the case of `COc1cncc(Nc2ccc(C(=O)c3c[nH]c4ncnc(NC(C)C)c34)c(F)n2)c1` [Compound P-4106, [2-fluoro-6-[(5-methoxy-3-pyridyl)amino]-3-pyridyl]-[4-(isopropylamino)-7H-pyrrolo[2,3-d]pyrimidin-5-yl]methanone], the figures for the IC50 in the test with SKNSH cells and at CYP1A2 were less than 1 µM and less than 5 µM, respectively.

Consider `COc1cncc(Nc2ccc(C(=O)c3c[nH]c4ncnc(NC5CC5)c34)c(F)n2)c1` [Compound P-4107, [4-(cyclopropylamino)-7H-pyrrolo[2,3-d]pyrimidin-5-yl]-[2-fluoro-6-[(5-methoxy-3-pyridyl)amino]-3-pyridyl]methanone], for which the IC50 with SKNSH cells was less than 1 µM; at CYP1A2 it was less than 5 µM.

`CNc1ncnc2[nH]cc(C(=O)c3ccc(Nc4cncc(OC)c4)nc3F)c12` [Compound P-4108, [2-fluoro-6-[(5-methoxy-3-pyridyl)amino]-3-pyridyl]-[4-(methylamino)-7H-pyrrolo[2,3-d]pyrimidin-5-yl]methanone]: the values for the IC50 in the test with SKNSH cells and at CYP1A2 were more than 1 µM and less than 5 µM, respectively.

With `CC(C)Nc1ncnc2[nH]cc(C(=O)c3ccc(NC4CCCCC4)nc3Cl)c12` [Compound P-4109, [2-chloro-6-(cyclohexylamino)-3-pyridyl]-[4-(isopropylamino)-7H-pyrrolo[2,3-d]pyrimidin-5-yl]methanone], the IC50 in the test with SKNSH cells was less than 10 µM; on CYP1A2, more than 10 µM.

Consider `CNc1ncnc2[nH]cc(C(=O)c3ccc(NC4CCCCC4)nc3Cl)c12` [Compound P-4110, [2-chloro-6-(cyclohexylamino)-3-pyridyl]-[4-(methylamino)-7H-pyrrolo[2,3-d]pyrimidin-5-yl]methanone], for which the figures for the IC50 in the test with SKNSH cells and at CYP1A2 were less than 10 µM and less than 5 µM, respectively.

On to `Cc1ccc(Nc2ccc(C(=O)c3c[nH]c4ncnc(NCC(F)(F)F)c34)c(F)n2)cn1` [Compound P-4112, [2-fluoro-6-[(6-methyl-3-pyridyl)amino]-3-pyridyl]-[4-(2,2,2-trifluoroethylamino)-7H-pyrrolo[2,3-d]pyrimidin-5-yl]methanone], for which the figures for the IC50 in the test on SKNSH cells and at CYP1A2 were less than 10 µM and less than 5 µM, respectively.

On to `CCc1ccc(Nc2ccc(C(=O)c3c[nH]c4ncnc(NCC(F)(F)F)c34)c(F)n2)cn1` [Compound P-4120, [6-[(6-ethyl-3-pyridyl)amino]-2-fluoro-3-pyridyl]-[4-(2,2,2-trifluoroethylamino)-7H-pyrrolo[2,3-d]pyrimidin-5-yl]methanone], for which the IC50 with SKNSH cells was less than 1 µM; on CYP1A2, less than 5 µM.
